Entries after “also recorded” stand apart in the source; their conditions may differ. Where a name gives a salt, the structure may show the parent alone. Read-outs that look alike come from different tables or passages of the source.
Legend:
HuR = target: T1, HuR (Homo sapiens, UniProt Q15717); assay: HuR RNA binding by microfluidics (specificity of hits); settings: 0.1 mM
T1 construct: The open reading frames (ORF) of HuR and HuD were obtained from the ORFeome library of cDNA clones (Open biosystems); V5-his (C); made in house; host or cells: cell-free expression on the microfluidic device, from pcDNA-Dest 40 carrying the ORFeome clone (Open Biosystems)
Protocol: Specificity of hits identified in the small molecule screen: To determine the specificity of the hits identified in the small molecule screen, the HuR protein (one of the human RNA binding protein used to validate our RNA binding assay) was selected. […] Binding of HuR to the consensus 4A RNA sequence was tested in the presence of the inhibitory molecules shown to inhibit RNA binding by NS4B. […] Similarly, 0.1 mM of the identified compounds didn't have an inhibitory effect on binding of HuR to the 3′ terminus of the negative HCV RNA strand.

Huh7.5 cells = assay: Alamar Blue-based cell viability assay; parameters: species or system human
Protocol: (§1) Total volume per well is 100 μl.
(§2) (or until there is a color change).

[1] = system: full-length J6/JFH (genotype 2a) HCV RNA genome; assay: microbe, parasite or virus in culture; type: cell-based; settings: for EC50: Hepatitis C virus, Huh7.5, 72 h, read-out: EC50 HCV replication, genotype 2a luciferase reporter, Huh7.5 cells, 72 hr
Protocol: In such assays, luciferase activity is directly proportional to HCV RNA genome replication.
The in vivo antiviral effect on HCV RNA replication of the inhibitory compounds identified in the above screen was measured. Following electroporation with a full-length HCV RNA genome harboring a luciferase reporter gene, Huh7.5 cells were grown in the presence of increasing concentrations of these compounds. Luciferase assays were performed at 72 hr. In parallel, the viability of cells in the presence of the compounds was assessed by an Alamar Blue-based assay.
Huh-7.5 cells were maintained in Dulbecco's modified minimal essential medium (Gibco) supplemented with 1% L-glutamine (Gibco), 1% penicillin, 1% streptomycin (Gibco), 1× nonessential amino acids (Gibco) and 10% fetal bovine serum (Omega Scientific). Cell lines were passaged twice weekly after treatment with 0.05% trypsin-0.02% EDTA and seeding at a dilution of 1:5. Subconfluent Huh-7.5 cells were trypsinized and collected by centrifugation at 700 g for 5 min. The cells were then washed three times in ice-cold RNase-free PBS (BioWhittaker) and resuspended at 1.5*10^7 cells/ml in PBS. Wild type or mutant FL-J6/JFH-5′C19Rluc2AUbi RNA for electroporation was generated by in vitro transcription of XbaI-linearized DNA templates using the T7 MEGAscript kit (Ambion), followed by purification, essentially as described above (In vitro RNA transcription and fluorescent labeling). 5 μg of RNA was mixed with 400 μl of washed Huh-7.5 cells in a 2 mm-gap cuvette (BTX) and immediately pulsed (0.82 kV, five 99 μs pulses) with a BTX-830 electroporator. After a 10 min recovery at 25° C., pulsed cells were diluted into 10 ml of prewarmed growth medium. Cells from several electroporations were pooled to a common a stock and seeded in 6 well plates (5*10^5 cells per well). After 24 hr, medium was replaced and cells were grown in the presence of serial dilutions of the various inhibitory compounds (Sigma) identified in the screen. […] Untreated cells were used as a negative control for water soluble compounds. For compounds solubilized in DMSO, untreated cells were grown in the presence of corresponding concentrations of the solvent as a negative control. Medium was changed daily. After 72 hr of treatment, cells were subjected to an alamar blue based viability assay and luciferase assay.
The experiment was repeated four times, each time with triplicates.
Following electroporation with a full-length J6/JFH (genotype 2a) HCV RNA genome harboring a luciferase reporter gene, Huh7.5 cells were grown in the presence of various concentrations of the individual compounds and their combinations. Luciferase assays were performed at 72 hr.

HCV RNA replication = assay: RNA replication inhibition assay (luciferase reporter-linked HCV genome); settings: Hepatitis C virus, percentage of untreated control population; for activity at 5 µM: read-out: Residual Luciferase activity, 5 micromolar; for activity at 10 µM: read-out: Residual Luciferase activity, 10 micromolar
hERG channel = hERG channel (Homo sapiens, UniProt Q12809); assay: HERG channel assay (whole cell recordings, CHO cell line expressing hERG)
Protocol: Test articles in this study were therefore characterized to determine their ability to inhibit the hERG channel. Ion channel activity was measured using a stably transfected Chinese Hamster Ovary (CHO) cell line expressing the hERG mRNA.
AVIVA's CHO cell line, which stably expresses hERG channels, was used for the study. Cells were cultured in DMEM/F12 containing 10% FBS, 1% penicillin/streptomycin and 500 μg/ml G418. Before testing, cells were harvested using Accumax (Innovative Cell Technologies).
Whole cell recordings were-performed using PX 7000A (Axon Instruments) with VIVA's SealChip™ technology. Cells were voltage clamped at a holding potential of −80 mV. The hERG current was then activated by a depolarizing step to −50 mV for 300 ms. This first step at −50 mV was used as a baseline for measuring peak amplitude of the tail current. Next, a voltage step to +20 mV was applied for 5 s to activate the channels. Finally a step back to −50 mV for 5 seconds removed activation and the deactivating tail current was recorded.
All compounds were prepared from either 10 or 30 mM DMSO stock solutions. Solutions were mixed by sonication for 20 min, followed by vigorous vortexing. Prior to testing, compounds were diluted to test concentrations in glass vials using External Solution. Dilutions were prepared no longer than 20 min prior to use. Equal amounts of DMSO (0.1%) were present in all final dilutions.
After achieving whole cell configuration, cells were monitored for 90 s to assess stability and then washed with External Solution for 66 s. The voltage protocol described above was then applied to the cells every 12 s throughout the procedure. Only stable cells with recording parameters above threshold (see Quality Control section) were allowed to enter the drug addition procedure. External solution containing 0.1% DMSO (vehicle) was applied to the cells to establish a baseline. After allowing the current to stabilize for 3 to 5 min, test articles were applied. Test article solutions were added to cells in 4 separate additions. […]

HCV = settings: cited from earlier work
[2] = Alamar Blue-based cell viability assay; parameters: species or system human; settings: human, Huh7.5 cells; genotype 2a experiments; Alamar Blue-based and CellTiter-Blue assay
Protocol: as §1, §2

[3] = system: subgenomic Bart 79I HCV RNA replicon (genotype 1b); assay: microbe, parasite or virus in culture; type: cell-based; settings: Hepatitis C virus; genotype 1b luciferase reporter, 72 hr; read-out: EC50 HCV replication
Protocol: Huh7.5 cells were electroporated with a subgenomic Bart 79I HCV RNA replicon harboring a luciferase reporter gene, and grown in the presence of increasing concentrations of the individual compounds or their combinations. As described above, luciferase assays and Alamar Blue-based viability assays were performed at 72 hr.

[4] = system: replicon harboring the W55R mutation; assay: Whole cell RNA electroporation, clemizole resistant clone; type: cell-based, HCV; settings: 10 μM clemizole; 2.5 μM SCH503034
Protocol: Whole cell RNA was extracted from clemizole-resistant replicon clones and from untreated replicon cells using TRIzol reagent (Invitrogen). Equal amounts of whole cell RNA (50 μg) were electroporated into Huh7.5 cells as described above. Cells were grown under G418 selection in the presence or absence of clemizole for 3 weeks. The number of colonies was determined using Image J (NIH) following fixation and staining with Crystal violet.
Cells transfected with whole cell RNA extracted from wild type replicon cells were sensitive to both drugs.

[5] = system: replicon harboring the A156T mutation; assay: Whole cell RNA electroporation, SCH503034 resistant clone; type: cell-based, HCV

T1 sequence (Q15717 whole entry): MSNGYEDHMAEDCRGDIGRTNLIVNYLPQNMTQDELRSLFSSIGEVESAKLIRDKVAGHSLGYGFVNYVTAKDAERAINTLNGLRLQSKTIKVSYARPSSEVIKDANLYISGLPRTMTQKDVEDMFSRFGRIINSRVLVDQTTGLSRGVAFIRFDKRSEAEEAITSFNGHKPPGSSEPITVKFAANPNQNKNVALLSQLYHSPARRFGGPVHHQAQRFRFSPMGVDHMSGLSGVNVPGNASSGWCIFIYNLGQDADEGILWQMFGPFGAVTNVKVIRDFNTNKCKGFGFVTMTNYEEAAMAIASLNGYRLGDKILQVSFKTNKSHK
hERG channel, sequence (Q12809 whole entry): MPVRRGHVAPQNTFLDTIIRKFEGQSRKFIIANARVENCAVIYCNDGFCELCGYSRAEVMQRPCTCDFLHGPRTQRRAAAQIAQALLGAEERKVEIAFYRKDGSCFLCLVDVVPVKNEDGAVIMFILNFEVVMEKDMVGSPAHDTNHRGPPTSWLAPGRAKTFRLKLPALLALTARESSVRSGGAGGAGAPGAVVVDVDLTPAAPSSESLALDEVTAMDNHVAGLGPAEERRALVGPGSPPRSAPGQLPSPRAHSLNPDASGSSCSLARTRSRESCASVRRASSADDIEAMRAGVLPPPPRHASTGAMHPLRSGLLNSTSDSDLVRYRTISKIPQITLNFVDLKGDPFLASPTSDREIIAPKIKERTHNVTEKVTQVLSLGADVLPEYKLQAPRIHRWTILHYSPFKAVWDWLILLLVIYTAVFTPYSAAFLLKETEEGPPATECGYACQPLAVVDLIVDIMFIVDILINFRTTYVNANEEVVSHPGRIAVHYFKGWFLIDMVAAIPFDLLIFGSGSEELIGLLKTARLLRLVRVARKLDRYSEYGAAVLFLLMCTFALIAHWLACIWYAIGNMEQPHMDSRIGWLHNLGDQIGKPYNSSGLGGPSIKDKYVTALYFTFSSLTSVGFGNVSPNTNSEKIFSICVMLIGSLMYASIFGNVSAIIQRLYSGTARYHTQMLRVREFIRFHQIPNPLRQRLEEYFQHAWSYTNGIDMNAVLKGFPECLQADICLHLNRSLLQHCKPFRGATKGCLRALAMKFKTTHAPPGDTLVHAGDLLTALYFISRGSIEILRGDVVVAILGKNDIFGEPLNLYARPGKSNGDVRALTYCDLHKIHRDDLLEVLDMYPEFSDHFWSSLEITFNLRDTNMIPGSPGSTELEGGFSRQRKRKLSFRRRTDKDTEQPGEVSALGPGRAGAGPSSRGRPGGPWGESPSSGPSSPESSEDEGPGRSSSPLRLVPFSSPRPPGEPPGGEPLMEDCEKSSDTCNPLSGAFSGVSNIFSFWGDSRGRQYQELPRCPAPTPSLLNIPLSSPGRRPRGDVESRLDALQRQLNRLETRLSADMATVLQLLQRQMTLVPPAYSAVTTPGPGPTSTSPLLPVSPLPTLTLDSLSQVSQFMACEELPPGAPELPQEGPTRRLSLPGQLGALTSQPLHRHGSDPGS

O=C(O)C1=CC(=C(c2ccc(O)c(C(=O)O)c2)c2ccc(O)c(C(=O)O)c2)C=CC1=O [ATA]
effect on binding of HuR to 4A RNA sequence (HuR): affected; also recorded: significantly inhibited | effect on binding of HuR to the 3′ terminus of the negative HCV RNA strand (HuR): significantly inhibited

Clc1ccc(Cn2c(CN3CCCC3)nc3ccccc32)cc1 [Clemizole hydrochloride, clemizole hydrochloride]
cellular toxicity (Huh7.5 cells; at antiviral concentrations, Alamar Blue, 72 hr, hydrochloride): no measurable cellular toxicity | cellular toxicity (Huh7.5 cells; human, 72 h): little toxicity | decrease in viral replication ([1]; 20 μM, 72 hr): tenfold

CCOC(=O)CSc1nc2cc(S(C)(=O)=O)ccc2n1Cc1ccccc1 [Compound 153]
activity at 5 µM (HCV RNA replication): > 80% | activity at 10 µM (HCV RNA replication): < 80%

Cc1cc2ncn(Cc3cc(Cl)cc4c3OCCO4)c2cc1C [Compound 154]
activity at 5 µM (HCV RNA replication): < 80% | activity at 10 µM (HCV RNA replication): < 55%

Cc1ccc(Cn2c(C)nc3cc(C)c(C)cc32)cc1 [Compound 155]
activity at 5 µM (HCV RNA replication): < 55% | activity at 10 µM (HCV RNA replication): < 20%

Cc1cc2nc(CN3CCCC3)n(Cc3ccc(Cl)cc3)c2cc1C [Compound 156]
activity at 5 µM (HCV RNA replication): < 80% | activity at 10 µM (HCV RNA replication): < 55%

Clc1ccc(Cn2c(CN3CCCC3)nc3cc(Cl)c(Cl)cc32)cc1 [Compound 157]
activity at 5 µM (HCV RNA replication): < 80% | activity at 10 µM (HCV RNA replication): < 55%

Cc1cc2nc(-c3ccc[nH]c3=O)n(Cc3ccc(Cl)cc3)c2cc1C [Compound 158]
activity at 5 µM (HCV RNA replication): < 80% | activity at 10 µM (HCV RNA replication): < 80%

Cc1cc2nc(-c3ccc(=O)[nH]c3)n(Cc3ccc(Cl)cc3)c2cc1C [Compound 159]
activity at 5 µM (HCV RNA replication): < 80% | activity at 10 µM (HCV RNA replication): < 55%

COC(=O)c1ccc(Cn2c(/C=C/c3ccccc3)nc3cc(C)c(C)cc32)cc1 [Compound 160]
activity at 5 µM (HCV RNA replication): < 80% | activity at 10 µM (HCV RNA replication): < 20%

COC(=O)c1ccc(Cn2cnc3ccncc32)cc1 [Compound 161]
activity at 5 µM (HCV RNA replication): > 80% | activity at 10 µM (HCV RNA replication): > 80%

O=c1ccc(-c2nc3cc(Cl)c(Cl)cc3n2Cc2ccc(Cl)c(Cl)c2)c[nH]1 [Compound 167]
IC50 (hERG channel; read-out: HERG IC50, CHO cell line stably expressing hERG): > 1000 nM

Cc1ccc2c(c1)nc(CN1CCCCC1)n2Cc1ccc(Cl)cc1 [Compound 184]
IC50 (hERG channel; human, CHO cells stably expressing hERG): > 1000 nM

CNC(=O)c1c(-c2ccc(F)cc2)oc2cc(N(CCO)S(C)(=O)=O)c(C3CC3)cc12 [HCV 796, HCV-796]
EC50 [1]: 68 ± 8 nM | EC50 (HCV; read-out: EC50 reported value): 17 nM

CC(C)[C@H](N)C(=O)O[C@@H]1[C@@H](CO)O[C@@H](n2ccc(N)nc2=O)[C@]1(C)O [NM283, valopicitabine]
EC50 [1]: 1160 ± 200 nM

CC(C)(C)NC(=O)N[C@H](C(=O)N1C[C@H]2[C@@H]([C@H]1C(=O)NC(CC1CCC1)C(=O)C(N)=O)C2(C)C)C(C)(C)C (some centres unmarked) [SCH503034, boceprevir]
CC50 at 72 h [2]: > 100000 nM | CC50 (Huh7.5 cells; genotype 1b experiments, Alamar Blue, 72 hr): > 100000 nM | EC50 [1]: 800 nM | decrease of viral replication ([1]; SCH503034 alone at 2.5 μM): ~1 log | viral replication relative to 1, untreated ([1]; SCH503034 alone at 2.5 μM): 0.08 | EC50 [3]: ~210 nM | sensitivity of Huh7.5 cells transfected with whole cell RNA from W55R clone [4]: remained sensitive | sensitivity of Huh7.5 cells transfected with whole cell RNA from A156T clone [5]: decreased sensitivity

CCC[C@H](NC(=O)[C@@H]1[C@H]2CCC[C@H]2CN1C(=O)[C@@H](NC(=O)[C@@H](NC(=O)c1cnccn1)C1CCCCC1)C(C)(C)C)C(=O)C(=O)NC1CC1 [VX-950, telaprevir]
EC50 [1]: ~300 nM | EC50 (HCV; different assay and 1b genotype, read-out: EC50 reported by others): 354 to 560 nM
